Results as given in patent publication US7880007B2, “Bicyclic substituted phenyl piperidine modulators of muscarinic receptors” (Vertex Pharmaceuticals Incorporated, priority 2004, dated 2011).

Assays:
Format in all cases: cell-based
M2 muscarinic receptor = biological target: T1, M2 muscarinic receptor (Homo sapiens, UniProt P08172); test: Functional mobilization of intracellular calcium (FLIPR), M2-CHO cells; conditions: for M2 Activity: M2-CHO cells, calcium mobilization (FLIPR)
T1 construct: expressed in transfected cells; host or cells: CHO (M2-CHO)
T1 sequence (P08172 1-466): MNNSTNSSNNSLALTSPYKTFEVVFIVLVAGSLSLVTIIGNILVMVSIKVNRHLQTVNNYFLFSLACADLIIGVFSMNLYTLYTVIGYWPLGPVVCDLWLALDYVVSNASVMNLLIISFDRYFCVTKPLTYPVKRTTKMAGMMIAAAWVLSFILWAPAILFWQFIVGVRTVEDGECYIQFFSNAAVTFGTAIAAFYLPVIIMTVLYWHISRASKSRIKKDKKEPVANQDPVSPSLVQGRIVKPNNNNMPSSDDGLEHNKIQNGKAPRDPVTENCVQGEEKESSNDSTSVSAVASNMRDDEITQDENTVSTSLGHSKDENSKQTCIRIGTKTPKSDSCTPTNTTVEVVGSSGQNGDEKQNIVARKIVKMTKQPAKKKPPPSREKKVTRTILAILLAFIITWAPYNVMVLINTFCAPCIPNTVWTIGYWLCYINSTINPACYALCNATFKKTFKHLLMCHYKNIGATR
Procedure, shortened: (§1)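 FLIPR fluorescence (ex 488, em 540 nm) recorded 60 sec after compound addition to dye-loaded CHO cells. Agonist mode: compound alone. Antagonist mode: 15 min compound pre-incubation, then carbachol at EC80, or co-application. Efficacy expressed as % of maximal carbachol response.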

M1 muscarinic receptor = biological target: T2, M1 muscarinic receptor (Homo sapiens, UniProt P11229); test: Functional mobilization of intracellular calcium (FLIPR), M1-CHO cells; conditions: for M1 Activity: M1-CHO cells, calcium mobilization (FLIPR)
T2 construct: expressed in transfected cells; host or cells: CHO (M1-CHO)
T2 sequence (P11229 1-460): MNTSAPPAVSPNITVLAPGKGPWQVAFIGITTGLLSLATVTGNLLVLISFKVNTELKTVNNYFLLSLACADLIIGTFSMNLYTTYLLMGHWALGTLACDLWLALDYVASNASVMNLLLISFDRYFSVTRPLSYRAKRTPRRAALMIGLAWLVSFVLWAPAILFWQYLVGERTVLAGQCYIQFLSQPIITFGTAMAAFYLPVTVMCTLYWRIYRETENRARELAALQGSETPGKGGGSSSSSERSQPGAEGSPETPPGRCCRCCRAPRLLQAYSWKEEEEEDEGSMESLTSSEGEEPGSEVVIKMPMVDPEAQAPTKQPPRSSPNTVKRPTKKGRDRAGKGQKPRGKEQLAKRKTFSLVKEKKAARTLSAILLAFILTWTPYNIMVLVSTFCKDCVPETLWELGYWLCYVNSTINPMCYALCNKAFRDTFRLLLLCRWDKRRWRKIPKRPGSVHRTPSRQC
Procedure, shortened: as §1

M3 muscarinic receptor = biological target: T3, M3 muscarinic receptor (Homo sapiens, UniProt P20309); test: Functional mobilization of intracellular calcium (FLIPR), M3-CHO cells; conditions: for M3 Activity: M3-CHO cells, calcium mobilization (FLIPR)
T3 construct: expressed in transfected cells; host or cells: CHO (M3-CHO)
Procedure, shortened: as §1

M4 muscarinic receptor = biological target: T4, M4 muscarinic receptor (Homo sapiens, UniProt P08173); test: Functional mobilization of intracellular calcium (FLIPR), M4-CHO cells; conditions: for M4 Activity: M4-CHO cells, calcium mobilization (FLIPR)
T4 construct: expressed in transfected cells; host or cells: CHO (M4-CHO)
T4 sequence (P08173 1-479): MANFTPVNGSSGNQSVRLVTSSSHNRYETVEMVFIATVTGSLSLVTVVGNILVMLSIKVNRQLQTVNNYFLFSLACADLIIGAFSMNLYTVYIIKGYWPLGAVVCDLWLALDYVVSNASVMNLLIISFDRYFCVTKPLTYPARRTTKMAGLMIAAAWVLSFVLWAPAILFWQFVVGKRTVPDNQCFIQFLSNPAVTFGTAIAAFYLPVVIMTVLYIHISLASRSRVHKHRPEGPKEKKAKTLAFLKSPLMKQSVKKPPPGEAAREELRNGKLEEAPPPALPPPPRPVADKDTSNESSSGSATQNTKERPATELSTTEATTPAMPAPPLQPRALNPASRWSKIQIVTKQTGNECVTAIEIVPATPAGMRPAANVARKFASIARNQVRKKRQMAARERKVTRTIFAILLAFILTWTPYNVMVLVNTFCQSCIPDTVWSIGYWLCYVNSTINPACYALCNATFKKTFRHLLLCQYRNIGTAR
Procedure, shortened: as §1

[1] = 100% efficacy = maximum response obtained with the Carbachol control
[2] = 100% efficacy is the maximum response obtained with the Carbachol control

T3 sequence (P20309 whole entry): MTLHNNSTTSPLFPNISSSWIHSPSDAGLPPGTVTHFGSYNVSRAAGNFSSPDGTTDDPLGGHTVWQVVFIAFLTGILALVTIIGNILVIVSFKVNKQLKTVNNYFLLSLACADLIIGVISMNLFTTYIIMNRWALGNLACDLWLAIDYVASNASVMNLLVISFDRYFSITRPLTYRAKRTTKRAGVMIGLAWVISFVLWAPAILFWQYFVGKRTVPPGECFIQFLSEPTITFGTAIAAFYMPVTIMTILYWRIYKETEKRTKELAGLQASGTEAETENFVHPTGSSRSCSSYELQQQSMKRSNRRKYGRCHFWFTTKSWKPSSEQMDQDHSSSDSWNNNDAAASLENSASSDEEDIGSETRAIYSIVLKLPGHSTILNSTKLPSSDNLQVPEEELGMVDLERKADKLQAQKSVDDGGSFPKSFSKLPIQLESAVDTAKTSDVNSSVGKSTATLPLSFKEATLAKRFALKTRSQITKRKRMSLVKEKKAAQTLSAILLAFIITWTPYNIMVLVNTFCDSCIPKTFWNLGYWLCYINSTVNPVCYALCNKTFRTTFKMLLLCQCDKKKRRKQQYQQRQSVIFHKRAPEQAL

Row | SMILES | Emax (M2 muscarinic receptor; [1]) [%] | Emax (M1 muscarinic receptor; [1]) [%] | Emax (M3 muscarinic receptor; [1]) [%] | Emax (M4 muscarinic receptor; [1]) [%] | Emax (M2 muscarinic receptor; [2]) [%] | Emax (M1 muscarinic receptor; [2]) [%] | Emax (M3 muscarinic receptor; [2]) [%] | Emax (M4 muscarinic receptor; [2]) [%] | M2 Activity (M2 muscarinic receptor) | M1 Activity (M1 muscarinic receptor) | M3 Activity (M3 muscarinic receptor) | M4 Activity (M4 muscarinic receptor) | M2 Efficacy (M2 muscarinic receptor; [1]) | M1 Efficacy (M1 muscarinic receptor; [1]) | M3 Efficacy (M3 muscarinic receptor; [1]) | M4 Efficacy (M4 muscarinic receptor; [1])
1 | Clc1cccc(C2CCN(C3CC4CCC(C4)C3)CC2)c1 (stereo not shown) [Compound 133] | < 25 | 25 to 100 | < 25 | 25 to 100 | – | – | – | – | + (activity was measured to be greater than 5.0 μM) | + (activity was measured to be greater than 5.0 μM) | + (activity was measured to be greater than 5.0 μM) | +++ (activity was measured to be less than 1.0 μM) | – | – | – | –
2 | COc1cccc(-c2ccccc2C2CCN([C@H]3C[C@H]4CC[C@H]3C4)CC2)c1 [Compound 116] | < 25 | 25 to 100 | < 25 | 25 to 100 | – | – | – | – | + (activity was measured to be greater than 5.0 μM) | + (activity was measured to be greater than 5.0 μM) | + (activity was measured to be greater than 5.0 μM) | ++ (activity was measured to be from 1.0 μM to 5.0 μM) | – | – | – | –
3 | OC1(c2ccc(F)cc2F)CCN(C2C[C@H]3CC[C@H]2C3)CC1 (stereo partly shown) [Compound 41] | < 25 | < 25 | < 25 | < 25 | – | – | – | – | + (activity was measured to be greater than 5.0 μM) | + (activity was measured to be greater than 5.0 μM) | + (activity was measured to be greater than 5.0 μM) | + (activity was measured to be greater than 5.0 μM) | – | – | – | –
4 | C=CCON=C1CCC(N2CCC(c3cc(Cl)ccc3OC)CC2)CC1 (stereo not shown) [Compound 350] | – | – | – | – | – | – | – | – | ++ (activity was measured to be from 1.0 μM to 5.0 μM) | +++ (activity was measured to be less than 1.0 μM) | + (activity was measured to be greater than 5.0 μM) | +++ (activity was measured to be less than 1.0 μM) | + (efficacy was calculated to be less than 25%) | ++ (efficacy was calculated to be from 100% to 25%) | + (efficacy was calculated to be less than 25%) | ++ (efficacy was calculated to be from 100% to 25%)
5 | c1ccc(C2CCN([C@H]3C[C@H]4CC[C@H]3C4)CC2)c(OCC2CCCCO2)c1 (stereo partly shown) [Compound 147] | 25 to 100 | 25 to 100 | < 25 | 25 to 100 | – | – | – | – | ++ (activity was measured to be from 1.0 μM to 5.0 μM) | ++ (activity was measured to be from 1.0 μM to 5.0 μM) | + (activity was measured to be greater than 5.0 μM) | +++ (activity was measured to be less than 1.0 μM) | – | – | – | –
6 | COc1ccccc1C1CCN(C2CC3CC(C)CC(C3)C2)CC1 (stereo not shown) [Compound 112] | < 25 | < 25 | < 25 | 25 to 100 | – | – | – | – | + (activity was measured to be greater than 5.0 μM) | + (activity was measured to be greater than 5.0 μM) | + (activity was measured to be greater than 5.0 μM) | + (activity was measured to be greater than 5.0 μM) | – | – | – | –

Further lines, with some results ahead:

Row | Emax (M2 muscarinic receptor; [1]) [%] | Emax (M1 muscarinic receptor; [1]) [%] | Emax (M3 muscarinic receptor; [1]) [%] | Emax (M4 muscarinic receptor; [1]) [%] | Emax (M2 muscarinic receptor; [2]) [%] | Emax (M1 muscarinic receptor; [2]) [%] | Emax (M3 muscarinic receptor; [2]) [%] | Emax (M4 muscarinic receptor; [2]) [%] | SMILES | M2 Activity (M2 muscarinic receptor) | M1 Activity (M1 muscarinic receptor) | M3 Activity (M3 muscarinic receptor) | M4 Activity (M4 muscarinic receptor) | M2 Efficacy (M2 muscarinic receptor; [1]) | M1 Efficacy (M1 muscarinic receptor; [1]) | M3 Efficacy (M3 muscarinic receptor; [1]) | M4 Efficacy (M4 muscarinic receptor; [1])
7 | < 25 | 25 to 100 | < 25 | 25 to 100 | – | – | – | – | COc1ccc(F)cc1C1(F)CCN(CC2CCOCC2)CC1 [Compound 239] | + (activity was measured to be greater than 5.0 μM) | + (activity was measured to be greater than 5.0 μM) | + (activity was measured to be greater than 5.0 μM) | ++ (activity was measured to be from 1.0 μM to 5.0 μM) | – | – | – | –
8 | < 25 | 25 to 100 | < 25 | 25 to 100 | – | – | – | – | Cc1c(C2CCN(C3C[C@H]4CC[C@H]3C4)CC2)cccc1C(F)(F)F (stereo partly shown) [Compound 149] | + (activity was measured to be greater than 5.0 μM) | + (activity was measured to be greater than 5.0 μM) | + (activity was measured to be greater than 5.0 μM) | + (activity was measured to be greater than 5.0 μM) | – | – | – | –
9 | – | – | – | – | < 25 | < 25 | < 25 | 25 to 100 | COc1ccc(C#CC2(O)CCCCC2)cc1C1CCN([C@@H]2C[C@H]3CC[C@H]2C3)CC1 [Compound 377] | + (activity was measured to be greater than 5.0 μM) | + (activity was measured to be greater than 5.0 μM) | + (activity was measured to be greater than 5.0 μM) | +++ (activity was measured to be less than 1.0 μM) | – | – | – | –
10 | 25 to 100 | 25 to 100 | < 25 | 25 to 100 | – | – | – | – | Fc1ccc(F)c(C2CCN(C3C[C@H]4CC[C@H]3C4)CC2)c1 (stereo partly shown) [Compound 205] | ++ (activity was measured to be from 1.0 μM to 5.0 μM) | ++ (activity was measured to be from 1.0 μM to 5.0 μM) | + (activity was measured to be greater than 5.0 μM) | +++ (activity was measured to be less than 1.0 μM) | – | – | – | –
11 | – | – | – | – | < 25 | 25 to 100 | < 25 | 25 to 100 | COc1ccc(-c2ccc(C(C)(C)C#N)cc2)cc1C1CCN(C2C[C@H]3CC[C@H]2C3)CC1 (stereo partly shown) [Compound 403] | + (activity was measured to be greater than 5.0 μM) | + (activity was measured to be greater than 5.0 μM) | + (activity was measured to be greater than 5.0 μM) | ++ (activity was measured to be from 1.0 μM to 5.0 μM) | – | – | – | –
12 | < 25 | < 25 | < 25 | < 25 | – | – | – | – | COc1ccc(-c2ccc(C(=O)Nc3nccs3)cc2)cc1C1CCN(C2CC3CCC(C3)C2)CC1 (stereo not shown) [Compound 313] | + (activity was measured to be greater than 5.0 μM) | + (activity was measured to be greater than 5.0 μM) | + (activity was measured to be greater than 5.0 μM) | + (activity was measured to be greater than 5.0 μM) | – | – | – | –
13 | – | – | – | – | < 25 | 25 to 100 | < 25 | 25 to 100 | COc1ccccc1C1CCN(C2CCCC(C)C2)CC1 (stereo not shown) [Compound 398] | + (activity was measured to be greater than 5.0 μM) | + (activity was measured to be greater than 5.0 μM) | + (activity was measured to be greater than 5.0 μM) | +++ (activity was measured to be less than 1.0 μM) | – | – | – | –
14 | 25 to 100 | 25 to 100 | < 25 | 25 to 100 | – | – | – | – | COc1ccc(Cl)cc1C1CCN(C2CC3CCC2C3)CC1 (stereo not shown) [Compound 209, 1-(bicyclo[2.2.1]heptan-2-yl)-4-(5-chloro-2-methoxyphenyl)-piperidine] | ++ (activity was measured to be from 1.0 μM to 5.0 μM) | ++ (activity was measured to be from 1.0 μM to 5.0 μM) | + (activity was measured to be greater than 5.0 μM) | +++ (activity was measured to be less than 1.0 μM) | – | – | – | –
